This is an account of results in publication PMC7876453, “Targeting Indoleamine 2,3-Dioxygenase in Cancer Models Using the Novel Small Molecule Inhibitor NTRC 3883-0” (Frontiers in Immunology, 2021).

Read-outs that look alike come from different tables or passages of the source.

The subject of data set [1] is IDO1. Set-up: method as in doi:10.1200/JCO.2019.37.7_suppl.358. As to conditions: once-daily oral dosing; cited from earlier work.
A further data set concerns the target T1, mTDO (Mus musculus, UniProt P48776).
T1 construct: hexahistidine (C); made in house; host or cells: Escherichia coli
As to the kind of experiment: mouse TDO biochemical assay (NFK GreenScreen). As to the method:
(§1) Full-length recombinant human and mouse IDO1 were expressed in Escherichia coli with a hexahistidine tag at the N-terminus, and purified by affinity chromatography to > 95% purity, as described ([8]). Human and mouse TDO containing a C-terminal hexahistidine tag were analogously expressed and purified to > 95% purity ([8]). The inhibitory activity of compounds was determined with the NFK GreenScreen assay technology under the conditions as described ([8]), except for the reaction buffer for IDO1, which was replaced by 50 mM NaH2PO4, pH 7.0, supplemented with 0.01% Tween-20 and 1% glycerol. Inhibition of the CYP3A4 and CYP2D6 enzymes was determined with the P450-Glo™ Screening System with Luciferin-IPA (Promega, #V9920 and V9890). For determination of IC50 values, the effect of inhibitors was determined in 10-point duplicate dose-response curves. Graphs were fitted to a four-parameter logistics equation in XLfit (ID Business Solutions, Ltd., Guildford, UK) from which IC50 values were calculated.

Another data set has as its target GL-261-mTDO (Mus musculus, UniProt P48776). In words: cell-based assay, Trp-catabolizing activity in GL-261-mTDO cells. The following applies: read-out: inhibition GL-261-mTDO.
In data set [2] the test system is IDO1. As to conditions: cited from earlier work.
In data set [3] the test system is IFNγ-stimulated adherent cell samples isolated from ascites of ovarian cancer patients. As to the kind of experiment: Trp-catabolizing activity in IFNγ-stimulated ascites cell samples. It is filed as cell-based. As to conditions: Homo sapiens. As to the method:
(§2) Ascites was collected from patients with a primary diagnosis of advanced epithelial ovarian cancer during paracentesis for diagnostics or symptom relieve, or during primary debulking surgery. Ascites was filtered and cells were collected by centrifugation as described ([23]). To enrich for tumor cells, ascites cell samples were allowed to adhere overnight to tissue culture plastic. The cell samples were then cultured for 2–3 weeks in advanced RPMI medium (ThermoFisher), supplemented with 10% FBS, 1% glutamax and 1% P/S, with 2 or 3 times passaging of the cells. qPCR analyses of the MUC16, HE4, IDO1, and TDO2 genes were performed for all samples as described above. Five samples which could be cultured over multiple passages were analyzed for cell surface expression of mucin-16 and EpCAM by flow cytometry using FITC-conjugated anti-mucin-16 (AssayPro, #32189-05141) and APC-conjugated anti-EpCAM (Miltenyi, #130-111-117, RRID: AB_2657496) to assure that the cell cultures consisted of malignant cells. IDO1 mRNA and protein levels in these samples were analyzed as described above after incubation with or without 200 ng/ml IFNγ for 24 h. The collection of ascites and the research described was conducted with approval of the medical ethical committee of the Radboud university medical center and informed written consent from each subject.

The target in a further data set is HEK-hTDO (Homo sapiens, UniProt P48775). As to the kind of experiment: cell-based assay, Trp-catabolizing activity in HEK-hTDO cells.
For data set [4], the system named is unstimulated adherent cell samples isolated from ascites of ovarian cancer patients. As to the kind of experiment: Trp-catabolizing activity in unstimulated ascites cell samples. The following applies: for IC50: Homo sapiens. Type of data set: cell-based, human. As to the method: as §2
A further data set relates to melanoma patients. The following applies: combination with pembrolizumab; cited from earlier work.
Data set [5] deals with CD8-positive T cells co-cultured with HEK-hIDO1 cells. In words: co-culture assay of HEK-hIDO1 cells with PBMCs, CFSE proliferation. It is filed as cell-based, human. The following applies: 7.5 µM Trp; 10 µM NTRC 3883-0, 1 µM epacadostat; 5 days.
Data set [6] relates to CT26 cells implanted subcutaneously into female BALB/c mice. As to the kind of experiment: CT26 mouse model, first study (ProQinase). As to conditions: 50 mg/kg NTRC 3748-0 b.i.d., 100 mg/kg epacadostat q.d. Type of data set: in vivo. As to the method:
For the first CT26 mouse model study, performed at ProQinase, 5 × 10^5 CT26 cells were implanted subcutaneously into female BALB/c mice on day 0. […] Tumor growth was monitored using caliper measurement 2 times weekly. The study was terminated at day 22 based on the tumor burden. Tumors and plasma were sampled 2 h post last dose.
(§3) Tissues were homogenized in PBS at a ratio of 1 mg per 10 μl using micro pellet pestles mounted on a Micro-Tube Homogenizer System (Thomas Scientific). After centrifugation, proteins were removed from the homogenized tissue supernatants and plasma samples by precipitation with methanol. The concentrations of inhibitor, Trp and Kyn were determined by LC-MS/MS.

Data set [7] relates to cell lines used in this study. In words: cell viability assays (ATPlite 1Step). The following applies: in parallel with the cell-based assays. (In general: ATP-based viability assays read luminescence as a measure of living cells.)
The next data set deals with T2, SW48 (hTDO) (Homo sapiens, UniProt P48775).
T2 construct: host or cells: SW48 cells
In words: cell-based assay, Trp-catabolizing activity in SW48 cells. As to conditions: Trp-catabolizing activity.

Data set [8] concerns IDO1. The following applies: cited from earlier work. The source holds these as a separate data set.
The subject of data set [9] is B16F10-mIDO1 subline j19 in female B6D2F1 mice. As to the kind of experiment: B16F10-mIDO1 syngeneic mouse model, intervention study. Type of data set: in vivo. As to conditions: 100 mg/kg p.o. b.i.d. from day 3. An excerpt: For development of the mIDO1-overexpressing B16F10 mouse model, performed at Charles River Laboratories, female B6D2F1 mice were implanted subcutaneously with 1 × 10^6 parental B16F10 cells or B16F10-mIDO1 cells (subline i6 or j19) on day 0 with n = 10 mice per group. A tumor volume of 2000 mm^3 was used as the endpoint of the experiment for the individual animals. To determine the optimal inoculation cell concentration, mice were implanted with 3 × 10^5, 1 × 10^5 or 3 × 10^4 parental or mIDO1-overexpressing B16F10 cells (subline j19) with n = 5 mice per group. The same endpoint of the experiment was used as described above. […] For the intervention study, 3 x 10^5 cells of the B16F10-mIDO1 subline j19 were implanted on day 0, and treatment was started on day 3 with vehicle (DMSO, Kolliphor, 5% mannitol; […]. Four animals were excluded from analysis due to non-treatment-related deaths. Tumors and plasma were sampled 2 h post last dose.
[…]. After centrifugation, proteins were removed from the homogenized tissue supernatants and plasma samples by precipitation with methanol. The concentrations of inhibitor, Trp and Kyn were determined by LC-MS/MS.

Another data set concerns the target T3, human TDO (Homo sapiens, UniProt P48775).
T3 construct: hexahistidine (C); made in house; host or cells: Escherichia coli
As to the kind of experiment: human TDO biochemical assay (NFK GreenScreen). As to the method: as §1

For data set [10], the system named is CT26 cells implanted subcutaneously into female BALB/c mice. In words: CT26 mouse model, second study (Charles River). Type of data set: in vivo. As to the method: For the second study, performed at Charles River Laboratories, 3 × 10^5 CT26 cells were implanted subcutaneously into female BALB/c mice on day 0. […] Tumor growth was monitored using caliper measurement 3 times weekly. A tumor volume of 2000 mm^3 was used as the endpoint of the experiment for the individual animals. Tumors were sampled 2 h post last dose.
as §3

Sequence of HEK-hTDO (P48775 whole entry): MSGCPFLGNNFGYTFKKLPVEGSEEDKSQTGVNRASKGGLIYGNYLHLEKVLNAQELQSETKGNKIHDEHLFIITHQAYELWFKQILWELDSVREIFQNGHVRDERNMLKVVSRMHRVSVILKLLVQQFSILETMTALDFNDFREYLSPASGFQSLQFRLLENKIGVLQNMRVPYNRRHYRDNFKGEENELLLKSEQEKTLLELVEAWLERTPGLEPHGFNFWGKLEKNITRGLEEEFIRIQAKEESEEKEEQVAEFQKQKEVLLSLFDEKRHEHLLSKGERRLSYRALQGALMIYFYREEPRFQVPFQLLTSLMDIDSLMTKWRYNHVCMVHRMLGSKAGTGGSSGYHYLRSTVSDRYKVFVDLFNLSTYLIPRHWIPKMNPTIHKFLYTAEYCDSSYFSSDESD
T2 sequence (P48775 whole entry): as above
T3 sequence (P48775 whole entry): as above
Sequence of GL-261-mTDO (P48776 whole entry): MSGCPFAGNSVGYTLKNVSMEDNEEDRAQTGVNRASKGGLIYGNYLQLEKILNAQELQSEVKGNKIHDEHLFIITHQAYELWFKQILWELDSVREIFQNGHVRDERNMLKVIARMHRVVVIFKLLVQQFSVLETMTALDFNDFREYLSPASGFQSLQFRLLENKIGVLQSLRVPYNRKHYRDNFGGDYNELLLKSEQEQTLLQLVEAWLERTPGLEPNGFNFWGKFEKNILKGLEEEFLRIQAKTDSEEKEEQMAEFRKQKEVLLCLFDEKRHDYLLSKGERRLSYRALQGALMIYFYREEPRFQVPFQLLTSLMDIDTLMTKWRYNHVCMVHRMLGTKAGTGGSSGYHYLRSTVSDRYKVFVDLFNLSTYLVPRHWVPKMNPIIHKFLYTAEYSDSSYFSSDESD
T1 sequence (P48776 whole entry): as above

Regarding `C[C@@H](C(=O)Nc1ccc(Cl)cc1)[C@H]1CC[C@@H](c2ccnc3ccc(F)cc32)CC1` [Linrodostat, linrodostat], in the data set with IDO1 [1], the “safety and target coverage” value is “safety and good target coverage”.

Regarding `NS(=O)(=O)NCCNc1nonc1C(=NO)Nc1ccc(F)c(Br)c1` [epacadostat, reference compound], the IC50 on mTDO turned out to be 225 nM; in data set [3] (IFNγ-stimulated samples, read-out: IC50), 8.3 nM; in data set [3] (IFNγ-stimulated, read-out: IC50 ASC 009), 3.7 nM; in data set [3] (IFNγ-stimulated, read-out: IC50 ASC 010), 9.3 nM; in data set [3] (IFNγ-stimulated, read-out: IC50 ASC 013), 9 nM; in [3] (IFNγ-stimulated, read-out: IC50 ASC 031), 7.2 nM. Further, the IC50 in data set [3] (IFNγ-stimulated, read-out: IC50 ASC 041) worked out at 7.4 nM; against HEK-hTDO, 24100 nM; in data set [4] (mean of samples, read-out: IC50 Mean), 7730 nM; in [4] (read-out: IC50 ASC 010), 9640 nM; in data set [4] (read-out: IC50 ASC 013), 9940 nM; in [4] (read-out: IC50 ASC 031), 8630 nM. In addition, the IC50 is 4310 nM in [4] (read-out: IC50 ASC 041), 6460 nM against SW48 (hTDO) and 54 nM against human TDO. The inhibition at 31.6 µM at GL-261-mTDO was 28%. The “tolerability in human patients” value in the data set with IDO1 [2] is “well tolerated”. For the same compound, the “times lower activity on TDO in the HEK-hTDO assay than in the biochemical assay” value at HEK-hTDO (cell-based versus biochemical TDO IC50) is on record as “more than 400 times”. In addition, the “inhibition of basal Trp-catabolizing activity (in words)” value in [4] is reported as “no or only minimal inhibition”. Further, in the data set on melanoma patients, the objective response is listed as 12 out of 22. In addition, in data set [5], the “effect on IDO1-mediated inhibition of T cell proliferation (in words)” value is given as “relieved the inhibitory effect”. Moreover, the “Kyn levels in the tumor” value in data set [6] (LC-MS/MS, 2 h post last dose) was “considerable reduction of Kyn levels”; in data set [10] (LC-MS/MS, 2 h post last dose, 100 mg/kg p.o. b.i.d.), “considerable reduction of Kyn levels”. The values for the tumor growth result in data set [6] (p.o. from day 8) and in [10] (100 mg/kg p.o. b.i.d. from day 8) were “inhibition of tumor growth” and “no inhibition of tumor growth”, respectively. Moreover, in [7], the cytotoxicity entry was “not cytotoxic”. In the data set with IDO1 [8], the “clinical benefit of the combination over pembrolizumab plus placebo” value is on record as “no clinical benefit”. The “tumor growth corrected for the variation in time until tumor establishment” value in [9] is recorded as “delay in tumor growth”. Besides, the “tumor growth in comparison to vehicle-treated animals” value in [9] was “no effect”.

Usually IC50 stands for the concentration at which inhibition is half-maximal. Usually inhibition stands for the relative decrease from the control value, in per cent.
